Measurements reported in patent US12221436B2, “Anthranilamides, their use as insecticide and processes for preparing the same” (PI INDUSTRIES LTD., priority 2018, dated 2025).

Tests used:
Myzus persicae = experiment: Example E: Myzus persicae, leaf dip method (capsicum leaves); type: in vivo; details: foliar, third instar nymphs, 72 h after release, dead and moribund combined, read-out: percent mortality
Procedure: (§1) Test solutions were prepared according to the procedure described herein below (500 PPM):
(§2) • 1. Eppendorf Vortex mixer (ThermoMixer C) and 1.5 mL Eppendorf tubes • 2. Beaker—100 mL • 3. Micro-pipette Reagents: • 1. Surfactant Solution • 2. De-mineralized (DM) Water Procedure: • 1. Weigh 10 mg of the compound of the present invention to be tested in an Eppendorf Tube. • 2. Add 200 mg of the Surfactant Solution into the tube. • 3. Fix the tube in Eppendorf Vortex mixer and start vortexing at 2000 rpm. • 4. Mix on Vortex mixer for 30 min. After 30 min, observe the sample over a microscope at 400× resolution. • 5. Add 1.0 mL DM water into the tube, close the cap, shake the tube thoroughly and transfer the contents, along with the beads, into a beaker. • 6. To rinse the tube, add another 1.0 mL of DM water into the tube, close the cap, shake well and transfer this into the same beaker. • 7. Repeat […] one more time so that the tube is rinsed well and all the compound of the present invention is transferred to the beaker. • 8. Add 16.8 mL of DM water into the beaker and stir well. • 9. Immediately use this sample for biological testing. • 10. Further dilutions can be prepared by taking appropriate quantity of the aliquot of Step 8, immediately after stirring, and diluting as per requirement. The sample solution must be well mixed just before biological testing.
(§3) Leaf dip method was used for screening, wherein the required quantity of the compounds were weighed and dissolved in the test solution into the tube and vortex at 2000 rpm with Zirconia beads for 90 min and for proper mixing, then mixed with 0.01% Triton-X solution to get the desired test concentration. Capsicum leaves were dipped in the solution for 10 seconds, shade dried for 20 min and then leaves were kept in glass units with petiole dipped in water. Known numbers of third instar nymphs were released and were kept in the plant growth chamber at a temperature of 25° C. and Relative Humidity of 70%. Observations on dead, moribund and live nymphs were recorded at 72 h after the release. Percent mortality was calculated by combining dead and moribund nymphs. The following compound numbers

Bemisia tabaci = experiment: Example D: Bemisia tabaci, leaf dip method (cotton leaves); type: in vivo; details: foliar, freshly emerged adults, 72 h after release, dead and moribund combined, read-out: percent mortality
Procedure: as §1, §2
as §3, with “Cotton” for “Capsicum”, “Known numbers of third instar nymphs were released and were kept in the plant growth chamber at a temperature of 25° C. and Relative Humidity of 70%.” left out, “[…]” for “nymphs”, “adults. […]” for “nymphs. The following compound numbers”

Row | Compound | mortality at 300 ppm (Myzus persicae) [%] | mortality at 300 ppm (Bemisia tabaci) [%]
1 | Cc1cc(Cl)cc(C(=O)NC(C)(C)C)c1NC(=O)c1cc(OC2CSC2)nn1-c1ncccc1Cl [Compound 97, N-(2-(tert-butylcarbamoyl)-4-chloro-6-methylphenyl)-1-(3-chloropyridin-2-yl)-3-(thietan-3-yloxy)-1H-pyrazole-5-carboxamide] | > 50 | > 50
2 | Cc1cc(Cl)cc(C(=O)NC(C)(C)C)c1NC(=O)c1cc(OC2CS(=O)(=O)C2)nn1-c1ncccc1Cl [Compound 99, N-(2-(tert-butylcarbamoyl)-4-chloro-6-methylphenyl)-1-(3-chloropyridin-2-yl)-3-((1,1-dioxidothietan-3-yl)oxy)-1H-pyrazole-5-carboxamide] |  | > 50
3 | CC(C)(C)NC(=O)c1cc(Cl)cc(Cl)c1NC(=O)c1cc(OC2CSC2)nn1-c1ncccc1Cl [Compound 176, N-(2-(tert-butylcarbamoyl)-4,6-dichlorophenyl)-1-(3-chloropyridin-2-yl)-3-(thietan-3-yloxy)-1H-pyrazole-5-carboxamide] | > 50 | > 50
